Test [1] addresses Neuropilin-1 (Homo sapiens, UniProt O14786). As to the kind of experiment: Binding affinity to NRP1 (unknown origin) by MST analysis.
Test [2] concerns the target Angiotensin-converting enzyme 2 (Homo sapiens, UniProt Q9BYF1). As to the kind of experiment: Binding affinity to ACE2 (unknown origin) by MST analysis.
In test [3] the test system is SARS-CoV-2. Nature of the test: microbe, parasite or virus in culture. The following applies: Severe acute respiratory syndrome coronavirus 2, Beta, HEK-293T.
Description: Antiviral activity against HIV-1 pseudotyped SARS-CoV-2 Beta infected in HEK293T cells expressing ACE2/NRP1 assessed as reduction in infection rate pretreated with cells for 1 hr followed by viral infection and measured after 2 days by firefly luciferase reporter gene assay
Test [4] deals with SARS-CoV-2. Nature of the test: microbe, parasite or virus in culture. The settings on record: Severe acute respiratory syndrome coronavirus 2, Omicron BA.2.75, HEK-293T.
Description: Antiviral activity against HIV-1 pseudotyped SARS-CoV-2 Omicron BA.2.75 infected in HEK293T cells expressing ACE2/NRP1 assessed as reduction in infection rate pretreated with cells for 1 hr followed by viral infection and measured after 2 days by firefly luciferase reporter gene assay
Test [5] relates to SARS-CoV-2. Nature of the test: Antiviral activity against HIV-1 pseudotyped SARS-CoV-2 Omicron BA.2.75 infected in HEK293T cells expressing ACE2/NRP1 assessed as reduction in viral replication at 1.6 uM pretreated with cells for 1 hr followed by viral infection and measured after 2 days by firefly luciferase reporter gene assay. The settings on record: Severe acute respiratory syndrome coronavirus 2, time 49.0 hrs. The format is functional, organism-based.

The test system of test [6] is SARS-CoV-2. Nature of the test: microbe, parasite or virus in culture. The settings on record: Severe acute respiratory syndrome coronavirus 2, Omicron BA.2.75, HEK-293T, 49 h, read-out: INH.
Test [7] relates to SARS-CoV-2. As to the kind of experiment: microbe, parasite or virus in culture. The following applies: Severe acute respiratory syndrome coronavirus 2, Alpha, HEK-293T.
Description: Antiviral activity against HIV-1 pseudotyped SARS-CoV-2 Alpha infected in HEK293T cells expressing ACE2/NRP1 assessed as reduction in infection rate pretreated with cells for 1 hr followed by viral infection and measured after 2 days by firefly luciferase reporter gene assay
The test system of test [8] is SARS-CoV-2. As to the kind of experiment: microbe, parasite or virus in culture. The settings on record: Severe acute respiratory syndrome coronavirus 2, Delta, HEK-293T.
Description: Antiviral activity against HIV-1 pseudotyped SARS-CoV-2 Delta infected in HEK293T cells expressing ACE2/NRP1 assessed as reduction in infection rate pretreated with cells for 1 hr followed by viral infection and measured after 2 days by firefly luciferase reporter gene assay

This is an account of results in ChEMBL document CHEMBL5537120 (Eur J Med Chem, 2024).

Activity calls are given as the source filed them. No cut-off for these calls is given here. Where a SMILES comes first, the peptide text is derived from it. Bridges are numbered along the chain shown (N, C = ends).

Sequence of Neuropilin-1 (O14786 whole entry): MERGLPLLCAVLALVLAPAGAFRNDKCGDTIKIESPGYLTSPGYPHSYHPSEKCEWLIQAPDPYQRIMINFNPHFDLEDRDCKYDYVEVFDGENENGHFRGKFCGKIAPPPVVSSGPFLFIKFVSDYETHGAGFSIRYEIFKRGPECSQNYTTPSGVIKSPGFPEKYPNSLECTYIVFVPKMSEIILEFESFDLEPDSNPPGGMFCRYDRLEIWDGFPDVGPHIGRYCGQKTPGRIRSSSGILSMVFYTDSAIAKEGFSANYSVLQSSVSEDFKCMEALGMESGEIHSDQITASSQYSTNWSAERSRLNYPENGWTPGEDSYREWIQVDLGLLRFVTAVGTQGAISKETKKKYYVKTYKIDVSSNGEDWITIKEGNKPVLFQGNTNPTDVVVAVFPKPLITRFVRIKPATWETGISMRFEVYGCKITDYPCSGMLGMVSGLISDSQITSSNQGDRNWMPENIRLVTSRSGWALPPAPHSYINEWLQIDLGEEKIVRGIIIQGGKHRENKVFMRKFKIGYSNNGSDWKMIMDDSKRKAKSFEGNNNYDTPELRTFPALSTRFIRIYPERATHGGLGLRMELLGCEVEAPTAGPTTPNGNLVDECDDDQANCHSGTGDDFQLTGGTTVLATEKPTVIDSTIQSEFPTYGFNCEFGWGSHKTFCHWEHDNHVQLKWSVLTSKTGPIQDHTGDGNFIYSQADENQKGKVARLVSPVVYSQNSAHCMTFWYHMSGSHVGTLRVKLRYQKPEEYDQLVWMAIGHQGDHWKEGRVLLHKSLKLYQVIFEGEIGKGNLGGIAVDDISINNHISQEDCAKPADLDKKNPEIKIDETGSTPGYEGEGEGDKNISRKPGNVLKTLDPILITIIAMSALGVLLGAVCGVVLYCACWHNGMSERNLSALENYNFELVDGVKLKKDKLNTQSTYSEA
Sequence of Angiotensin-converting enzyme 2 (Q9BYF1 whole entry): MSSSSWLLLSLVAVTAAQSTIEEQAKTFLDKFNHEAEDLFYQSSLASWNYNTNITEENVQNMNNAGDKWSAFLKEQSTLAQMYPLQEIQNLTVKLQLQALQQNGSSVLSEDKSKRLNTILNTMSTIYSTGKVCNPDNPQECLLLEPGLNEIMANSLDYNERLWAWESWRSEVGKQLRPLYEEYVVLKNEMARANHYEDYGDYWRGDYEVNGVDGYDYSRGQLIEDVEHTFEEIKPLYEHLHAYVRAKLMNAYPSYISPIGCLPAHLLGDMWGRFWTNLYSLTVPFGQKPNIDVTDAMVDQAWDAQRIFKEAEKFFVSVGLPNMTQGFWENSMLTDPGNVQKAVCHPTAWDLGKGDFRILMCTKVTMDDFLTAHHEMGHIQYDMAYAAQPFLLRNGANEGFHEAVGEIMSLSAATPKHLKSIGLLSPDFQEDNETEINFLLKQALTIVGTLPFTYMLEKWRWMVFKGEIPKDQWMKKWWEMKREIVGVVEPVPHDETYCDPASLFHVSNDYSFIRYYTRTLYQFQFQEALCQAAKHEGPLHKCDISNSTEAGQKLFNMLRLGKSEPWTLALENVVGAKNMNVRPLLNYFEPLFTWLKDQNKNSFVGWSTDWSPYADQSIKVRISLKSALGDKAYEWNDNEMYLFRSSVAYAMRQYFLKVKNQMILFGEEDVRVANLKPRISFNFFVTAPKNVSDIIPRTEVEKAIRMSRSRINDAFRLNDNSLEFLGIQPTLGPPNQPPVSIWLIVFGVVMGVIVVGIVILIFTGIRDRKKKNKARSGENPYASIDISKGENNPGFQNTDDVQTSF

Take `CSCC[C@@H](NC(=O)CNC(=O)CNC(=O)[C@@H](Cc1ccc(O)cc1)NC(=O)[C@@H](Cc1c[nH]c2ccccc12)NC(=O)CNC(=O)[C@@H](Cc1ccc(O)cc1)NC(=O)[C@@H](Cc1ccccc1)NC(=O)[C@@H](Cc1ccccc1)NC(=O)Cc1ccc2ccccc2c1)C(=O)N[C@H](CCC(=O)O)C(=O)N[C@H](CCCCN)C(=O)N[C@H](CC(C)C)C(=O)N[C@H](CC(C)C)C(=O)N[C@H](CCCNC(=N)N)C(=O)NCC(=O)NCC(=O)N[C@H](CCCNC(=N)N)C(=O)NCC(=O)N[C@H](CCC(=O)O)C(=O)N[C@H](CCCNC(=N)N)C(=O)N1CCC[C@@H]1C(=O)N1CCC[C@@H]1C(=O)N[C@H](CCCNC(=N)N)C(=O)O`: the Kd in test [1] was 106 nM; in test [2], “Not Active”.
Consider `CC(C)C[C@@H]1NC(=O)[C@@H]2CCCN2C(=O)[C@H](CO)NC(=O)[C@@H](NC(=O)[C@H](Cc2cnc[nH]2)NC(=O)[C@H](CO)NC(=O)[C@H](Cc2ccccc2)NC(=O)[C@H](CC(=O)O)NC(=O)CN)CSSC[C@@H](C(=O)N[C@H](C(=O)N[C@@H](Cc2ccc(O)cc2)C(=O)N2CCC[C@H]2C(=O)N[C@@H](CC(=O)O)C(=O)N2CCC[C@H]2C(=O)N[C@@H](CCC(=O)O)C(=O)NCC(=O)NCC(=O)NCC(=O)N[C@@H](CCCCN)C(=O)N2CCC[C@H]2C(=O)N[C@@H](C)C(=O)N[C@@H](CCCNC(=N)N)C(=O)N2CCC[C@H]2C(=O)N[C@@H](C)C(=O)N[C@@H](CCCNC(=N)N)C(=O)O)[C@@H](C)O)NC(=O)[C@H](CCCCN)NC(=O)[C@H](Cc2ccccc2)NC(=O)[C@H](Cc2c[nH]c3ccccc23)NC(=O)[C@@H]2CCCN2C(=O)[C@H](Cc2ccccc2)NC(=O)[C@H](Cc2ccc(O)cc2)NC(=O)[C@H](CCCNC(=N)N)NC1=O` (H-GDFSHCSPLRYFPWFKCTYPDPEGGGKPARPAR-OH; disulfide 6-17), for which the EC50 was 2190 nM in test [3], 450 nM in test [4], 2730 nM in test [7] and 1200 nM in test [8]. The compound further had a Kd in test [1] of 13.4 nM. For the same compound, the outcome in test [5] was Active. The inhibition at 1.6 µM in test [6] came to 70%.
For the compound `CC[C@H](C)[C@H](NC(=O)[C@H](Cc1ccccc1)NC(=O)[C@H](CCCCN)NC(=O)[C@H](CC(=O)O)NC(=O)CN)C(=O)N[C@H]1CSSC[C@@H](C(=O)N[C@@H](CC(N)=O)C(=O)N[C@@H](Cc2c[nH]c3ccccc23)C(=O)N[C@@H](Cc2ccc(O)cc2)C(=O)N[C@@H](CC(=O)O)C(=O)N2CCC[C@H]2C(=O)N[C@@H](CCC(=O)O)C(=O)NCC(=O)NCC(=O)NCC(=O)N[C@@H](CCCCN)C(=O)NCC(=O)N[C@@H](CC(N)=O)C(=O)N[C@@H](CCCNC(=N)N)C(=O)N2CCC[C@H]2C(=O)N2CCC[C@H]2C(=O)N[C@@H](CCCNC(=N)N)C(=O)O)NC(=O)[C@H](Cc2ccccc2)NC(=O)[C@H](CCCCN)NC(=O)[C@H](Cc2c[nH]c3ccccc23)NC(=O)[C@@H]2CCCN2C(=O)[C@H](CCCCN)NC(=O)[C@H](CC(=O)O)NC(=O)[C@H](CCCNC(=N)N)NC(=O)[C@H]([C@@H](C)CC)NC(=O)[C@@H]2CCCN2C(=O)[C@H](CC(C)C)NC1=O` (H-GDKFICLPIRDKPWKFCNWYDPEGGGKGNRPPR-OH; disulfide 6-17), binding in test [1] was characterised by a dissociation constant (Kd) of 96.7 nM. Further, the outcome in test [5] was Active.
Turning to `CC(C)C[C@H](NC(=O)[C@H](CC(=O)O)NC(=O)CN)C(=O)N[C@@H](Cc1cnc[nH]1)C(=O)N[C@@H](C)C(=O)N[C@H]1CSSC[C@@H](C(=O)N[C@H](C(=O)N[C@@H](CC(C)C)C(=O)NCC(=O)N[C@@H](CC(=O)O)C(=O)N2CCC[C@H]2C(=O)N[C@@H](CCC(=O)O)C(=O)NCC(=O)NCC(=O)NCC(=O)N[C@@H](CCCNC(=N)N)C(=O)N[C@@H](CO)C(=O)N2CCC[C@H]2C(=O)N[C@@H](CCCNC(=N)N)C(=O)N[C@@H](CCCNC(=N)N)C(=O)N[C@@H](C)C(=O)N[C@@H](CCCNC(=N)N)C(=O)O)[C@@H](C)O)NC(=O)[C@H](C)NC(=O)[C@H](Cc2c[nH]c3ccccc23)NC(=O)[C@H](Cc2c[nH]c3ccccc23)NC(=O)[C@@H]2CCCN2C(=O)[C@H](CC(=O)O)NC(=O)CNC(=O)[C@H](CCCNC(=N)N)NC(=O)[C@H](C(C)C)NC(=O)[C@@H]2CCCN2C(=O)[C@H](CCCNC(=N)N)NC1=O` (H-GDLHACRPVRGDPWWACTLGDPEGGGRSPRRAR-OH; disulfide 6-17), in test [1], the affinity, expressed as Kd, was 17.6 nM. In addition, the result in test [5] was Active.
Taken in the same sequence, the figures for `CC[C@H](C)[C@@H]1NC(=O)[C@@H]2CCCN2C(=O)[C@H](CO)NC(=O)[C@@H](NC(=O)[C@@H](NC(=O)[C@H](Cc2ccc(O)cc2)NC(=O)[C@H](CCCNC(=N)N)NC(=O)[C@H](CC(=O)O)NC(=O)CN)[C@@H](C)O)CSSC[C@@H](C(=O)N[C@@H](CC(=O)O)C(=O)N[C@@H](CC(C)C)C(=O)NCC(=O)N[C@@H](CC(=O)O)C(=O)N2CCC[C@H]2C(=O)N[C@@H](CCC(=O)O)C(=O)NCC(=O)NCC(=O)NCC(=O)N[C@@H](CCCCN)C(=O)N[C@@H](C)C(=O)N2CCC[C@H]2C(=O)N[C@@H](CCCNC(=N)N)C(=O)N[C@@H](CCCNC(=N)N)C(=O)N[C@@H](C)C(=O)N[C@@H](CCCNC(=N)N)C(=O)O)NC(=O)[C@H](CCCNC(=N)N)NC(=O)[C@H](Cc2c[nH]c3ccccc23)NC(=O)[C@H](Cc2c[nH]c3ccccc23)NC(=O)[C@@H]2CCCN2C(=O)[C@H](Cc2ccccc2)NC(=O)[C@H](CCSC)NC(=O)[C@H](CCCNC(=N)N)NC1=O` (H-GDRYTCSPIRMFPWWRCDLGDPEGGGKAPRRAR-OH; disulfide 6-17) were 22.5 nM and “Active”.
Taken in the same sequence, the figures for `CC(C)C[C@@H]1NC(=O)[C@H](C)NC(=O)[C@H](CCCNC(=N)N)NC(=O)[C@@H](NC(=O)[C@@H]2CCCN2C(=O)[C@H](CO)NC(=O)[C@H](Cc2ccc(O)cc2)NC(=O)[C@H](CC(=O)O)NC(=O)CN)CSSC[C@@H](C(=O)N2CCC[C@H]2C(=O)N[C@@H](CO)C(=O)NCC(=O)N[C@@H](CC(=O)O)C(=O)N2CCC[C@H]2C(=O)N[C@@H](CCC(=O)O)C(=O)NCC(=O)NCC(=O)NCC(=O)N[C@@H](CCCNC(=N)N)C(=O)NCC(=O)N[C@@H](CCCNC(=N)N)C(=O)N[C@@H](CCCNC(=N)N)C(=O)N2CCC[C@H]2C(=O)N2CCC[C@H]2C(=O)N[C@@H](CCCNC(=N)N)C(=O)O)NC(=O)[C@H](CCCNC(=N)N)NC(=O)[C@H](Cc2c[nH]c3ccccc23)NC(=O)[C@H](Cc2c[nH]c3ccccc23)NC(=O)[C@@H]2CCCN2C(=O)[C@H](CO)NC(=O)[C@H](Cc2cnc[nH]2)NC(=O)[C@H](CCCNC(=N)N)NC1=O` (H-GDYSPCRALRHSPWWRCPSGDPEGGGRGRRPPR-OH; disulfide 6-17) were 76.3 nM and “Active”.
